The source of these data is patent US20230150981A1, “N-HETEROARYLALKYL-2-(HETEROCYCLYL AND HETEROCYCLYLMETHYL) ACETAMIDE DERIVATIVES AS SSTR4 AGONISTS” (Takeda Pharmaceutical Compnay Limited, priority 2020, published 2023).

SMILES strings stand for the structures.

In this test the target is T1, SSTR4 (Homo sapiens, UniProt P31391).
T1 construct: host or cells: CHO-K1
T1 sequence (P31391 whole entry): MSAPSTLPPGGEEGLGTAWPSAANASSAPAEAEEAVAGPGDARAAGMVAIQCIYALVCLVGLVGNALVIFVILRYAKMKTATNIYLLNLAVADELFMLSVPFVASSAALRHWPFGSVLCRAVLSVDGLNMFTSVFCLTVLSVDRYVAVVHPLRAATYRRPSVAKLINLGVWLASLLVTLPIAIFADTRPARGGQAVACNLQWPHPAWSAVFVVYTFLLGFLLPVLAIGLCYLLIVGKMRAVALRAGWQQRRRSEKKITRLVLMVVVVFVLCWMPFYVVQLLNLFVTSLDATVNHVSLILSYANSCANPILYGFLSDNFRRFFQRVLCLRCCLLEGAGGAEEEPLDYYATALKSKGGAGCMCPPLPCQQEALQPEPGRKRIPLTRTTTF
Briefly: Inhibition of forskolin stimulated cAMP in CHO-K1 cells overexpressing SSTR4. Type of test: cell-based. Conditions: read-out: SSTR4 Activity pEC50 (converted). On the procedure: Inhibition of Forskolin Stimulated cAMP in Cells Overexpressing SSTR4
This cell-based assay measures the ability of compounds to inhibit forskolin stimulated cAMP in CHO-K1 cells overexpressing SSTR4. CHO-K1 cells overexpressing SSTR4 (CHO-SSTR4) are purchased from DiscoveRx (product code 95-0059C2). The CHO-SSTR4 cells are maintained in F12K media with 10% Fetal Bovine Serum (Hyclone), 1% Pen/Strep (Life Technologies), and 800 μg/mL G418 (Life Technologies). To perform the assay, 3000 cells are plated per well in white 384-well plate (Corning 3570) in 50 μL complete media and the cells are allowed to attach for 16 hours in a 37° C., 5% CO2 incubator. The next day, the culture media is removed from the cells and the cells are washed (added then removed) with Krebs Ringer Buffer (ZenBio, KRB-1000 mL). Test compounds are suspended in DMSO and diluted in stimulation buffer: Krebs Ringer Buffer plus 0.5% BSA (Roche), 300 μM IBMX (Sigma), and 350 nM forskolin (Sigma). The cells are incubated in 10 μL compound/stimulation buffer for 30 minutes at room temperature. Cellular cAMP levels are detected with a HTRF LANCE Ultra cAMP kit (Perkin Elmer, catalog number TRF0264).
The assay is performed in accordance with the manufacturer's instructions. Five μL of diluted Eu-W8044 labeled streptavidin (dilution: 1:50 in cAMP Detection Buffer) is added to each well. Then 5 μL of diluted biotin cAMP (dilution: 1:150 in cAMP Detection Buffer) is added to each well. The plates are covered and allowed to incubate for 60 minutes at room temperature on a shaker. HTRF (665 nm/615 nm) is read on a Perkin Elmer ENVISION plate reader. The pEC50 values are generated using Activity Base for Screening Data Management.
On to `Cc1cccnc1OCC1(NC(=O)[C@@H](C)[C@@H]2CCCN2C)CC1` (single isomer, unassigned) [Example 176], for which the EC50 was 126 nM.
Consider `C[C@@H](CN1CCC1)C(=O)NC(C)(C)c1ccccc1F` (single isomer, unassigned) [Example 157], for which the EC50 was 2510 nM.
As to `CCN1CCCC1CC(=O)NC1(COc2ncccc2C)CCCC1` (stereo not shown) [Example 65, 2-(1-ethylpyrrolidin-2-yl)-N-(1-(((3-methylpyridin-2-yl)oxy)methyl)cyclopentyl)acetamide], the EC50 is 251 nM.
With `Cc1cccnc1OCC1(NC(=O)C[C@H]2CCCN2C)CC1` [Example 121, (R)-N-(1-(((3-methylpyridin-2-yl)oxy)methyl)cyclopropyl)-2-(1-methylpyrrolidin-2-yl)acetamide] the figure was 631 nM.
For `Cc1cccnc1OCC(C)(C)NC(=O)CC1CCC(C)N1C` (stereo not shown) [Example 68, 2-(1,5-dimethylpyrrolidin-2-yl)-N-(2-methyl-1-((3-methylpyridin-2-yl)oxy)propan-2-yl)acetamide] the value was 25.1 nM; for `C[C@@H](CN1CCC1)C(=O)N[C@@H](CF)c1ccccc1` (single isomer, unassigned) [Example 206], 200 nM.
With `C[C@H](NC(=O)C[C@@H]1CCCN1C)c1ccc(F)cc1` [Example 32, N-((S)-1-(4-fluorophenyl)ethyl)-2-((S)-1-methylpyrrolidin-2-yl)acetamide] the figure was 501 nM; with `CN1CCCC1CC(=O)NC(C)(C)c1cccc(Cl)c1` (stereo not shown) [Example 12, N-(2-(3-chlorophenyl)propan-2-yl)-2-(1-methylpyrrolidin-2-yl)acetamide], 126 nM.
On to `O=C(CCN1CCCC1)N[C@@H](c1cccc(Cl)c1)C(F)F` (single isomer, unassigned) [Example 197], for which the EC50 is 2000 nM.
On to `Cn1nc(C(C)(C)NC(=O)CC23CCCN2CCC3)c2ccccc21` [Example 10, N-(2-(1-methyl-1H-indazol-3-yl)propan-2-yl)-2-(tetrahydro-1H-pyrrolizin-7a(5H)-yl)acetamide], for which the EC50 is 200 nM.
With `Cc1cccc(CC2(NC(=O)C[C@@H]3CCCN3C)CC2)c1` [Example 81, (S)-N-(1-(3-methylbenzyl)cyclopropyl)-2-(1-methylpyrrolidin-2-yl)acetamide] the figure was 398 nM.
As for `CN1CCC[C@@H]1CC(=O)NC(C)(C)c1ccccc1F` [Example 159, (R)-N-(2-(2-fluorophenyl)propan-2-yl)-2-(1-methylpyrrolidin-2-yl)acetamide], the EC50 is 398 nM.
Consider `Cc1cccnc1OCC1(NC(=O)CC2CCCCN2C)CC1` (stereo not shown) [Example 120, 2-(1-methylpiperidin-2-yl)-N-(1-(((3-methylpyridin-2-yl)oxy)methyl)cyclopropyl)acetamide], for which the EC50 is 251 nM.
As for `CCOc1cccnc1OCC(C)(C)NC(=O)C[C@@H]1CCCN1C` [Example 109, (S)-N-(1-((3-ethoxypyridin-2-yl)oxy)-2-methylpropan-2-yl)-2-(1-methylpyrrolidin-2-yl)acetamide], the EC50 was 631 nM.
With `O=C(CCN1CCC1)N[C@@H](c1cc(F)ccc1F)C(F)F` (single isomer, unassigned) [Example 168] the figure was more than 5010 nM; with `CN1CCC[C@H]1CC(=O)NC(C)(C)c1cccc(Cl)c1F` [Example 83, (S)-N-(2-(3-chloro-2-fluorophenyl)propan-2-yl)-2-(1-methylpyrrolidin-2-yl)acetamide], 251 nM.
As to `Cc1cccnc1OCC1(NC(=O)[C@@H](C)[C@H]2CCCN2C)CC1` (single isomer, unassigned) [Example 126], the EC50 was 398 nM.
With `Cc1ccnc(OCC(C)(C)NC(=O)C[C@@H]2CCCN2C)c1` [Example 102, (S)-N-(2-methyl-1-((4-methylpyridin-2-yl)oxy)propan-2-yl)-2-(1-methylpyrrolidin-2-yl)acetamide] the figure was 631 nM; with `CC(C)(COc1ncccc1C(F)(F)F)NC(=O)C[C@@H]1CCCN1C1CC1` [Example 53, (S)-2-(1-cyclopropylpyrrolidin-2-yl)-N-(2-methyl-1-((3-(trifluoromethyl)pyridin-2-yl)oxy)propan-2-yl)acetamide], 63.1 nM; with `CC[C@H](CN1CCC1)C(=O)NC(C)(C)c1ccccc1F` (single isomer, unassigned) [Example 199], more than 10000 nM.
Turning to `CN1CCC(F)(F)C1CC(=O)NC(C)(C)c1nccc2ccccc12` (stereo not shown) [Example 97, 2-(3,3-difluoro-1-methylpyrrolidin-2-yl)-N-(2-(isoquinolin-1-yl)propan-2-yl)acetamide], the EC50 was 1000 nM.
`COc1c(C)cccc1C(C)(C)NC(=O)C[C@H]1CCCN1C` [Example 117, (R)-N-(2-(2-methoxy-3-methylphenyl)propan-2-yl)-2-(1-methylpyrrolidin-2-yl)acetamide]: the EC50 was 158 nM.
With `CN1Cc2ccccc2C[C@H]1CC(=O)NC(C)(C)c1nccc2ccccc12` [Example 20, (S)-N-(2-(isoquinolin-1-yl)propan-2-yl)-2-(2-methyl-1,2,3,4-tetrahydroisoquinolin-3-yl)acetamide] the figure was 2000 nM; with `Cc1c(F)cccc1C(C)(C)NC(=O)[C@@H](C)CN1CCC1` (single isomer, unassigned) [Example 143], 200 nM; with `COc1c(F)cccc1C(C)(C)NC(=O)C[C@H]1CCCN1C` [Example 115, (R)-N-(2-(3-fluoro-2-methoxyphenyl)propan-2-yl)-2-(1-methylpyrrolidin-2-yl)acetamide], 200 nM.
With `CN1CCC[C@H]1CC(=O)NC(C)(C)COc1ccccn1` [Example 123, (S)-N-(2-methyl-1-(pyridin-2-yloxy)propan-2-yl)-2-(1-methylpyrrolidin-2-yl)acetamide] the figure was 158 nM; with `CN1CCCCC1CC(=O)NC(C)(C)COc1ncccc1C(F)(F)F` (stereo not shown) [Example 29, N-(2-methyl-1-((3-(trifluoromethyl)pyridin-2-yl)oxy)propan-2-yl)-2-(1-methylpiperidin-2-yl)acetamide], 100 nM.
As to `CCN1CCC[C@H]1CC(=O)NC(C)(C)COc1ncccc1C(F)(F)F` [Example 51, (S)-2-(1-ethylpyrrolidin-2-yl)-N-(2-methyl-1-((3-(trifluoromethyl)pyridin-2-yl)oxy)propan-2-yl)acetamide], the EC50 was 126 nM.
In the case of `CN1CCCC1CC(=O)NC(C)(C)c1nccc2occc12` (stereo not shown) [Example 25, N-(2-(furo[3,2-c]pyridin-4-yl)propan-2-yl)-2-(1-methylpyrrolidin-2-yl)acetamide], the EC50 is 79.4 nM.
For `COc1cc(F)ccc1[C@H](C)NC(=O)C[C@@H]1CCCN1C` [Example 95, N-((S)-1-(4-fluoro-2-methoxyphenyl)ethyl)-2-((S)-1-methylpyrrolidin-2-yl)acetamide] the value was 794 nM.
For `C[C@H](NC(=O)C[C@@H]1CCCN1C)c1ccc(Cl)cc1` [Example 31, N-((S)-1-(4-chlorophenyl)ethyl)-2-((S)-1-methylpyrrolidin-2-yl)acetamide] the value was 316 nM.
For `C[C@H](CN1CCC1)C(=O)NC(C)(C)c1ccccc1Cl` (single isomer, unassigned) [Example 133] the value was 200 nM; for `Cc1cccnc1OCC(C)(C)NC(=O)[C@@H](C)[C@@H]1CCCN1C` (racemic) [Example 67, (S)-N-(2-methyl-1-((3-methylpyridin-2-yl)oxy)propan-2-yl)-2-((S)-1-methylpyrrolidin-2-yl)propanamide and (R)-N-(2-methyl-1-((3-methylpyridin-2-yl)oxy)propan-2-yl)-2-((R)-1-methylpyrrolidin-2-yl)propanamide], 1.58 nM.
As for `C[C@H](NC(=O)C[C@H]1CCCN1C)c1ccc(F)cc1` [Example 37, N-((S)-1-(4-fluorophenyl)ethyl)-2-((R)-1-methylpyrrolidin-2-yl)acetamide], the EC50 is 1000 nM.
For `Cc1cccnc1OCC(C)(C)NC(=O)[C@H](C)[C@@H]1CCCN1C` (racemic) [Example 66, (R)-N-(2-methyl-1-((3-methylpyridin-2-yl)oxy)propan-2-yl)-2-((S)-1-methylpyrrolidin-2-yl)propanamide and (S)-N-(2-methyl-1-((3-methylpyridin-2-yl)oxy)propan-2-yl)-2-((R)-1-methylpyrrolidin-2-yl)propanamide], the EC50 is 15.8 nM.
With `CN1CCCCC1CC(=O)NC(C)(C)c1nccc2c1cnn2C` (stereo not shown) [Example 26, N-(2-(1-methyl-1H-pyrazolo[4,3-c]pyridin-4-yl)propan-2-yl)-2-(1-methylpiperidin-2-yl)acetamide], the EC50 is 2510 nM.
As to `CN1CCC[C@@H]1CC(=O)NC(C)(C)COc1ncccc1OC(F)(F)F` [Example 106, (R)-N-(2-methyl-1-((3-(trifluoromethoxy)pyridin-2-yl)oxy)propan-2-yl)-2-(1-methylpyrrolidin-2-yl)acetamide], the EC50 was 20 nM.
